In PMC11012124, “Synthesis of Novel Triazine-Based Chalcones and 8,9-dihydro-7H-pyrimido[4,5-b][1,4]diazepines as Potential Leads in the Search of Anticancer, Antibacterial and Antifungal Agents” (International Journal of Molecular Sciences, 2024):

Experiments:
[1] = tested on: U251; experiment: cells; settings: Homo sapiens, U-251, 48 h; for GI50: U251, 48 h; for CC50: read-out: LC50
[2] = tested on: DU-145; experiment: cells; settings: Homo sapiens, DU-145, 48 h; for CC50: read-out: LC50
[3] = tested on: RPMI-8226; experiment: cells; settings: Homo sapiens, RPMI-8226, 48 h; for CC50: read-out: LC50
[4] = tested on: HCT-116; experiment: cells; settings: Homo sapiens, HCT-116, 48 h; for CC50: read-out: LC50
[5] = tested on: MDA-MB-231/ATCC; experiment: cells; settings: Homo sapiens, MDA-MB-231, 48 h; for CC50: read-out: LC50
[6] = tested on: T-47D; experiment: cells; settings: Homo sapiens, T47D, 48 h; for CC50: read-out: LC50
[7] = tested on: LOX IMVI; experiment: cells; settings: Homo sapiens, 48 h; for CC50: read-out: LC50, LOX IMVI, 48 h
[8] = tested on: MOLT-4; experiment: cells; settings: Homo sapiens, MOLT-4, 48 h; for CC50: read-out: LC50
[9] = tested on: NCI-H226; experiment: cells; settings: Homo sapiens, NCI-H226, 48 h; for CC50: read-out: LC50
[10] = tested on: NCI-H23; experiment: cells; settings: Homo sapiens, NCI-H23, 48 h; for CC50: read-out: LC50
[11] = tested on: SR; experiment: cells; settings: Homo sapiens, 48 h; for CC50: read-out: LC50
[12] = tested on: A549/ATCC; experiment: cells; settings: Homo sapiens, A549, 48 h; for CC50: read-out: LC50
[13] = tested on: BT-549; experiment: cells; settings: Homo sapiens, BT-549, 48 h; for CC50: read-out: LC50
[14] = tested on: PC-3; experiment: cells; settings: Homo sapiens, PC-3, 48 h; for CC50: read-out: LC50
[15] = tested on: SNB-19; experiment: cells; settings: Homo sapiens, SNB-19, 48 h; for CC50: read-out: LC50
[16] = tested on: IGROV1; experiment: cells; settings: Homo sapiens, IGROV-1, 48 h; for CC50: read-out: LC50
[17] = tested on: NCI/ADR-RES; experiment: cells; settings: Homo sapiens, 48 h; for CC50: read-out: LC50
[18] = tested on: HOP-92; experiment: cells; settings: Homo sapiens, HOP-92, 48 h; for CC50: read-out: LC50
[19] = tested on: MDA-MB-435; experiment: cells; settings: Homo sapiens, MDA-MB-435, 48 h; for CC50: read-out: LC50
[20] = tested on: ACHN; experiment: cells; settings: Homo sapiens, 48 h; for CC50: read-out: LC50
[21] = tested on: SW-620; experiment: cells; settings: Homo sapiens, SW-620, 48 h; for CC50: read-out: LC50
[22] = tested on: NCI-H522; experiment: cells; settings: Homo sapiens, NCI-H522, 48 h; for CC50: read-out: LC50
[23] = tested on: 60 cancer cell lines; experiment: NCI-60 one-dose screen (10 μM); format: cell-based; settings: Homo sapiens; one dose of 10 μM, mean over 60 cancer cell lines; read-out: Mean Growth Percent (MGP)
Source text: Additionally, the mean of the growth percentages (MGP) of each compound against all the 60 cancer cell lines is also reported, which is used as one of the selection criteria to continue with tests at five concentration doses.

[24] = tested on: SK-MEL-2; experiment: cells; settings: Homo sapiens, SK-MEL-2, 48 h; for CC50: read-out: LC50
[25] = tested on: N. gonorrhoeae ATCC 49226; experiment: MIC on GC agar plates; format: cell-based, Neisseria gonorrhoeae; settings: Neisseria gonorrhoeae, ATCC49226, read-out: MIC
Protocol: An initial screening for bacterial inhibition was performed by the agar diffusion method. […] DMSO and TSB were included as negative controls. Gentamicin and trimethoprim sulfamethoxazole were included as a positive control for growth inhibition. Derivatives showing growth inhibition were tested at least twice before being selected for the microdilution test. For N. gonorrhoeae, the agar diffusion method was also used for screening with some modifications. […] Penicillin and tetracycline were used as controls. […] Briefly, GC agar supplemented with 1% isovitalex was prepared with increasing concentrations of the new compounds and inoculated with 10 µL of a bacterial suspension (1 × 10^4 CFU). The lowest concentration of the compound that inhibited bacterial growth was determined as the MIC. Bacterial growth was examined and verified using the oxidase test. The experiments were performed in duplicate in at least two independent assays.

COc1cc(/C=C/C(=O)c2cc(OC)c(OC)c(OC)c2)ccc1Oc1nc(NCCO)nc(N2CCOCC2)n1 [20d] was tested, and the GI50 [1] was 1.62 µM, the CC50 [1] was 6.02 µM and the GI50 [2] was 2.99 µM. The CC50 [2] was 35.3 µM, the GI50 [3] was 1.63 µM and the CC50 [3] was > 100 µM. It also gave a GI50 [4] of 1.53 µM, a CC50 [4] of 6.78 µM and a GI50 [5] of 2.86 µM. The CC50 [5] was 35.4 µM, the GI50 [6] was 3.12 µM and the CC50 [6] was 39.9 µM. For the same compound, the GI50 [7] was 0.642 µM, the CC50 [7] was 4.99 µM and the GI50 [8] was 1.98 µM. The CC50 [8] was > 100 µM, the GI50 [9] was 3.69 µM and the CC50 [9] was > 100 µM. For the same compound, the GI50 [10] was 1.99 µM, the CC50 [10] was 17.5 µM and the GI50 [11] was 0.784 µM. For the same compound, the CC50 [11] was > 100 µM, the GI50 [12] was 2.78 µM and the CC50 [12] was 42.2 µM. The GI50 [13] was 1.6 µM, the CC50 [13] was 6.88 µM and the GI50 [14] was 3.11 µM. It also gave a CC50 [14] of 43.2 µM, a GI50 [15] of 2.31 µM and a CC50 [15] of 29.9 µM. It also gave a GI50 [16] of 2.45 µM, a CC50 [16] of 26.2 µM and a GI50 [17] of 4.72 µM. The CC50 [17] was 95.9 µM, the GI50 [18] was 2.75 µM and the CC50 [18] was 35.4 µM. For the same compound, the GI50 [19] was 3.1 µM, the CC50 [19] was 35.1 µM and the GI50 [20] was 1.64 µM. It also gave a CC50 [20] of 7.9 µM, a GI50 [21] of 2.24 µM and a CC50 [21] of 26.4 µM. For the same compound, the GI50 [22] was 1.56 µM, the CC50 [22] was 6.43 µM and the activity at 10 µM [23] was 0.79%. For the same compound, the GI50 [24] was 2.76 µM and the CC50 [24] was 33.1 µM.

Compound COc1cc(/C=C/C(=O)c2ccc(S(=O)(=O)NCCNc3nc(N(C)C)nc(N4CCOCC4)n3)cc2)cc(OC)c1OC [23d] has a GI50 [1] of 1.54 µM, a CC50 [1] of 5.54 µM and a GI50 [2] of 3.31 µM. The CC50 [2] was 34.1 µM, the GI50 [3] was 1.39 µM and the CC50 [3] was > 100 µM. It also gave a GI50 [4] of 1.56 µM, a CC50 [4] of 5.92 µM and a GI50 [5] of 2.9 µM. For the same compound, the CC50 [5] was 36.7 µM, the GI50 [6] was 5.74 µM and the CC50 [6] was 71.5 µM. It also gave a GI50 [7] of 1.64 µM, a CC50 [7] of 5.76 µM and a GI50 [8] of 2.23 µM. For the same compound, the CC50 [8] was > 100 µM, the GI50 [9] was 11.4 µM and the CC50 [9] was 72.4 µM. The GI50 [10] was 3.09 µM, the CC50 [10] was 40.3 µM and the GI50 [11] was 1.88 µM. For the same compound, the CC50 [11] was > 100 µM, the GI50 [12] was 3.55 µM and the CC50 [12] was 43.9 µM. The GI50 [13] was 2.01 µM, the CC50 [13] was 6.91 µM and the GI50 [14] was 3.76 µM. The CC50 [14] was > 100 µM, the GI50 [15] was 4.28 µM and the CC50 [15] was 41.7 µM. For the same compound, the GI50 [16] was 2.6 µM, the CC50 [16] was 50.1 µM and the MIC [25] was > 500 µg/mL. For the same compound, the GI50 [18] was 7.27 µM, the CC50 [18] was 76 µM and the GI50 [19] was 1.9 µM. It also gave a CC50 [19] of 8.46 µM, a GI50 [20] of 1.78 µM and a CC50 [20] of 6.75 µM. It also gave a GI50 [21] of 1.9 µM, a CC50 [21] of 7.42 µM and a GI50 [22] of 1.66 µM. It also gave a CC50 [22] of 6.37 µM, an activity at 10 µM [23] of -32.7% and a GI50 [24] of 10.7 µM. For the same compound, the CC50 [24] was 48.9 µM.

With COc1cc(/C=C/C(=O)c2ccc(C)cc2)ccc1Oc1nc(Nc2ccc(F)cc2)nc(N(C)C)n1 [21b] the GI50 [1] was 3.32 µM, the CC50 [1] was > 100 µM and the GI50 [2] was 25.8 µM. For the same compound, the CC50 [2] was > 100 µM, the GI50 [3] was 3 µM and the CC50 [3] was > 100 µM. For the same compound, the GI50 [4] was 2.28 µM, the CC50 [4] was 24.4 µM and the GI50 [5] was 5.24 µM. The CC50 [5] was 50.8 µM, the GI50 [6] was 3.57 µM and the CC50 [6] was > 100 µM. The GI50 [7] was 1.84 µM, the CC50 [7] was 6.69 µM and the GI50 [8] was 2.8 µM. The CC50 [8] was > 100 µM, the GI50 [9] was 5.22 µM and the CC50 [9] was 49.1 µM. For the same compound, the GI50 [10] was 5.52 µM, the CC50 [10] was > 100 µM and the GI50 [11] was 3.25 µM. The CC50 [11] was > 100 µM, the GI50 [12] was 45.8 µM and the CC50 [12] was > 100 µM. It also gave a GI50 [13] of 6.27 µM, a CC50 [13] of 91.3 µM and a GI50 [14] of 8.85 µM. For the same compound, the CC50 [14] was > 100 µM, the GI50 [15] was 11.1 µM and the CC50 [15] was 67.3 µM. For the same compound, the GI50 [16] was 13.8 µM, the CC50 [16] was 99.1 µM and the GI50 [17] was 5.97 µM. For the same compound, the CC50 [17] was > 100 µM, the GI50 [18] was 4.57 µM and the CC50 [18] was > 100 µM. For the same compound, the GI50 [19] was 11.4 µM, the CC50 [19] was 70.4 µM and the GI50 [20] was 9.58 µM. For the same compound, the CC50 [20] was 96.5 µM, the GI50 [21] was 2.36 µM and the CC50 [21] was 20.1 µM. The GI50 [22] was 9.76 µM, the CC50 [22] was > 100 µM and the activity at 10 µM [23] was 39%. The GI50 [24] was 8.83 µM and the CC50 [24] was > 100 µM.
